Laboratory results taken from PMC6300691, “Enhancement of Heat Stability and Kinetic Parameters of the Maize Endosperm ADP-Glucose Pyrophosphorylase by Mutagenesis of Amino Acids in the Small Subunit With High B Factors” (Frontiers in Plant Science, 2018).
Positions count from the first letter of the chain named.

Columns and labels:
Assay in all cases: Initial-rate assay without 3-PGA, ATP and G-1-P both varied (0.01-10 mM and 0.1-25 mM), global fit to a sequential mechanism.
Format in all cases: biochemical
Settings in all cases: read-out: ATP Km (absence of 3-PGA)
[1] = target: T1, E123G, R331K, K402R (BT2-BF) (Zea mays, UniProt P55241+Q947C0, E123G/R331K/K402R)
T1 construct: BT2-BF with wild type SH2 (SH2-WT/BT2-BF), E. coli, purified
T1 sequence (Q947C0 1-475 E123G/R331K/K402R): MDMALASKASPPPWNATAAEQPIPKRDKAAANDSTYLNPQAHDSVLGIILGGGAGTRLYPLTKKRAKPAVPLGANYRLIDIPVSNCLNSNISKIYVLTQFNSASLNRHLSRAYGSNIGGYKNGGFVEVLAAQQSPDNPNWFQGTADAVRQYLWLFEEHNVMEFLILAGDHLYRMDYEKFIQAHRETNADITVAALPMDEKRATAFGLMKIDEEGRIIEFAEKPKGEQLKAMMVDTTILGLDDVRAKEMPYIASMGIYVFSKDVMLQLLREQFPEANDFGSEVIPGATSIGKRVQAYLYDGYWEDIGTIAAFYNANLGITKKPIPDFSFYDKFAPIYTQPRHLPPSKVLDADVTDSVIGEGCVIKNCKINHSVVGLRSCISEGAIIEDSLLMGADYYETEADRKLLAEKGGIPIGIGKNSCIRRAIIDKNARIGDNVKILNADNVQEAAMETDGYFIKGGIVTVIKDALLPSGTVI
T1 sequence (P55241 46-516): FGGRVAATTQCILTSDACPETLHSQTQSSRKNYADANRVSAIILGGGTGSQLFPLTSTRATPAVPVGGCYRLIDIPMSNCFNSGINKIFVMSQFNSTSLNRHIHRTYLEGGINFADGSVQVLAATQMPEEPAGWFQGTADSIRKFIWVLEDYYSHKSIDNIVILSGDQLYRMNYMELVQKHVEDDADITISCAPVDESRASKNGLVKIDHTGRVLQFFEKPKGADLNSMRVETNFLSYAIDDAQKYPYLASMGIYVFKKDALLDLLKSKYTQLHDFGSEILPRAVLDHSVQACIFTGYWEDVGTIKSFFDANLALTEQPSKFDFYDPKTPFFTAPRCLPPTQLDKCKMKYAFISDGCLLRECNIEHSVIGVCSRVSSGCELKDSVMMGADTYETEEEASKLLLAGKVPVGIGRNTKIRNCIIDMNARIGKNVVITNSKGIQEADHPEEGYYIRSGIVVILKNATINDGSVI
Description: (§1) Activity in the absence of the activator 3PGA was examined. While 3PGA is a noted activator for plant AGPase, the mechanism of activation differs for the various AGPases. […] Thus, the term “activation fold” in the literature is merely an activity reported at single fixed substrate concentrations.
(§2) The small subunit mutant, MP, contains the first 198 amino acids of the small subunit of the maize endosperm enzyme and the last 277 amino acids from the potato tuber enzyme resulting in thirty-three amino acid sites that differ from the maize endosperm enzyme ([Cross et al., 2004]).

[2] = target: T2, SH2-E (Zea mays, UniProt P55241+Q947C0, N131R/T142F/A160T/Q261S/A396S/V416I/C424V/S444A)
T2 construct: SH2-E with wild type BT2 (SH2-E/BT2-WT), E. coli, purified
T2 sequence (Q947C0 1-475): T1 sequence (Q947C0 1-475 E123G/R331K/K402R) with G123E, K331R, R402K
T2 sequence (P55241 46-516 N131R/T142F/A160T/Q261S/A396S/V416I/C424V/S444A): T1 sequence (P55241 46-516) with N86R, T97F, A115T, Q216S, A351S, V371I, C379V, S399A
Description: as §1, §2

[3] = target: T3, SH2-E/BT2-BF (Zea mays, UniProt P55241+Q947C0, E123G/N131R/T142F/A160T/Q261S/R331K/A396S/K402R/V416I/C424V/S444A)
T3 construct: SH2-E co-expressed with BT2-BF, E. coli, purified
T3 sequence (Q947C0 1-475 E123G/R331K/K402R): T1 sequence (Q947C0 1-475 E123G/R331K/K402R)
T3 sequence (P55241 46-516 N131R/T142F/A160T/Q261S/A396S/V416I/C424V/S444A): T1 sequence (P55241 46-516) with N86R, T97F, A115T, Q216S, A351S, V371I, C379V, S399A
Description: as §1, §2

[4] = target: T4, SH2-ISM/BT2-BF (Zea mays, UniProt P55241+Q947C0, Q96G/E123G/D161G/R331K/K402R/A443R)
T4 construct: SH2-ISM co-expressed with BT2-BF, E. coli, purified
T4 sequence (Q947C0 1-475 E123G/R331K/K402R): T1 sequence (Q947C0 1-475 E123G/R331K/K402R)
T4 sequence (P55241 46-516 Q96G/D161G/A443R): T1 sequence (P55241 46-516) with Q51G, D116G, A398R
Description: as §1, §2

Nc1ncnc2c1ncn2[C@@H]1O[C@H](COP(=O)(O)OP(=O)(O)OP(=O)(O)O)[C@@H](O)[C@H]1O [ATP, adenosine 5'-triphosphate]
Km [1]: 300 ± 250 µM
Km [2]: 2500 ± 430 µM
Km [3]: 2410 ± 350 µM
Km [4]: 510 ± 100 µM
